This is an account of results in patent US12630536B2, “Cyanotriazine derivative, preparation method therefor, and application thereof” (Chengdu Fanxi Biopharma Co., LTD., priority 2020, dated 2026).

In the experiment the target is T1, THR-α ligand-binding domain (H6-THR-α) (Homo sapiens, UniProt P10827).
T1 construct: made in house; host or cells: Escherichia coli BL21 (DE3), vector pET28a
T1 sequence (P10827 148-410 isoform P10827-2 limits assumed): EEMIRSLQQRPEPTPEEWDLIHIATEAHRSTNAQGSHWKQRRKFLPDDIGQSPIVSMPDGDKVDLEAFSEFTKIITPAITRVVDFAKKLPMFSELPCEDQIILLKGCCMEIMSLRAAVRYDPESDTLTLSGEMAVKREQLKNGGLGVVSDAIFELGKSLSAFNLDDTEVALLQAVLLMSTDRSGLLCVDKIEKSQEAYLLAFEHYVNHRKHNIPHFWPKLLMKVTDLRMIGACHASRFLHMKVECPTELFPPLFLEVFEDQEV
T1 sequence (P19793 225-462 partner limits assumed): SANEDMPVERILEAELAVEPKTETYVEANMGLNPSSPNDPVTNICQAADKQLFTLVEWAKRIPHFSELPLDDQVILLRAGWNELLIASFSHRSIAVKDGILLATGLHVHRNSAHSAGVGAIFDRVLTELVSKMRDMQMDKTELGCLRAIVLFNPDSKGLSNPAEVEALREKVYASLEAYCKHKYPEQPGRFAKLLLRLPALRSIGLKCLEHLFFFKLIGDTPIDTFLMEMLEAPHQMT
T1 sequence (Q15596 679-703 partner limits assumed): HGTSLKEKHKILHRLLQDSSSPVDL
Put plainly: Co-activated peptide recruitment test of THR-α/RXR/GRIP1 (TR_LBD agonist detection, HTRF). It counts as biochemical. As for the experimental part:
A ligand binding domain of THR-β (amino acids 148-410) (H6-THR-β) and a ligand binding domain of THR-α (amino acids 202-461) (H6-TRα) were cloned into E. coli expression vector pET28a (Novagen, Milwaukee, Wis.) containing N-terminal six His sequences. The resulting recombinant six-His-tagged protein was produced in E. coli BL21(DE3) cells. The cells were grown in Terrific Broth (self-used self-prepared Bacto tryptone (3.3%, w/v), Difico yeast extract (2.0%, w/v) and NaCl (0.5%, w/v) medium), incubated at 25° C. for 24 hours using a shake flask in 0.2 mM IPTG, harvested or dissolved with 5 volumes of buffer A (0.05 M Tris, 0.3 M NaCl, 1% W/V betaine, 0.01 M imidazole, 0.02 M b-mercaptoethanol, pH 8.0). Lysozyme (1.0 mg/ml, Sigma) and CompleteProtease Inhibitor Cocktail (Roche Diagnostics Gmbh) were added to the slurry and the solution was sonicated for one minute and 5 times at 4° C. The suspension was centrifuged at 127,300 RCF for 2 hours in a Ti45 Beckmann rotor and the supernatant was loaded onto an NI NTAAgarose (Quigen 30210) column. After washing with the buffer A, […] or H6-THR-α was eluted with the buffer A containing 0.25 M imidazole.
30 microliters of H6-THR-β (50 nM) or H6-THR-α in 50 mM Hepes, pH 7.0, 1 mM DTT, 0.05% NP40 and 0.2 mg/ml BSA (binding buffer) were mixed with an equal volume of EE-RxRα (50 nM) in the binding buffer. […] Aliquot ([…]) was transferred to a 384-well black microtiter plate. HTRF signal was read on a Victor5 reader (PerkinElmer Life and Analytical Sciences). EC50 was calculated.
Gene clones expressing a ligand-binding domain (amino acids 148-410) of THR-β (H6-THR-β) and a ligand-binding domain (amino acids 202-461) of THR-α (H6-THR-α) were inserted into an Escherichia coli expression vector pET28a, and the expression vector contained one N-terminal 6-His sequence. The expression vector was introduced into an Escherichia coli BL21 (DE3) strain to produce a recombinant protein with a His tag. […] After finishing culturing, a bacterium in culture was collected, and the collected bacterium was resuspended with a lysis solution (0.05 M Tris, 0.3 M NaCl, 1% W/V betaine, 0.01 M imidazole, 0.02 M β-mercaptoethanol, and pH 8.0) with a volume 5 times that of the bacterium, and lysozyme and protease inhibitors were added at the same time, the treated bacteria was subjected to ultrasonic lysis (5 times per minute) in ice bath (4° C.). A lysed suspension was centrifuged at 127300 RCF for 2 hours, a supernatant was loaded on a NI_NTA agarose (Quigen 30210) column, and after washing with a buffer A, an H6-TRβ or H6-TRα protein was eluted with the buffer A containing 0.25 M imidazole.
A human retinol X receptor (amino acid 225-462) (RxRα) was subjected to engineering modification, so that an N-terminal of the human retinol X receptor had His6 and EE(EFMPME) tags, and then the human retinol X receptor was cloned into a pACYC vector, and produced a His6 EEtagged protein in Escherichia coli. IPTG with a final concentration of 0.1 mM was added into the culture medium for induction, and cultured in a shaking flask at 18° C. for 18 hours. After finishing culturing, a bacterium in culture was collected, and the collected bacterium was re-suspended with a lysis solution (0.05 M Tris, 0.3 M NaCl, 1% W/V betaine, 0.01 M imidazole, 0.02 β-mercaptoethanol, and pH 8.0) with a volume 5 times that of the bacterium, lysozyme and protease inhibitors were added at the same time, and stirred at 4° C. for 30 minutes. Then, a suspension was subjected to an ultrasonic treatment at 4° C. for 30 seconds for 5 times. The suspension was collected, and centrifuged at 12000 RCF for 20 minutes. A supernatant was collected, and the supernatant was filtered with a membrane with a pore size of 0.45 μm, and then added with 0.5% NP-40.
(In TR-FRET formats the signal depends on donor and acceptor labels being close together.)

Structures are written as SMILES.

As for `Cn1cnc2ccc(Oc3c(Br)cc(-n4nc(C#N)c(=O)[nH]c4=O)cc3Br)cc21` [Compound 1, 2-(3,5-dibromo-4-((1-methyl-1H-benzo[d]imidazol-6-yl)oxy)phenyl)-3,5-dioxo-2,3,4,5-tetra hydro-1,2,4-triazine-6-carbonitrile], for the setting “Detection of TR_LBD agonist, read-out: TR_α_EC50”, the EC50 was determined as 0.0353 µM. Further, the “Maximum activity ratio (A520/A495)” value (TR_LBD agonist, TR_α) came to 3.83. Also, the “Measurement of cpd/T3 (maximum ratio)” value (TR_LBD agonist, TR_α, maximum relative to T3) was 71.1%.
